In US20260363251A1 (priority 2022, published 2026):

Legend:
[1] = tested on: Mycosphaerella fijiensis; experiment: Treatment of black Sigatoka on banana (Table 10); type: in vivo; conditions: 1 d preventive, 400 L/ha, 75 g/ha, 63DAI, + 0.9% Orchex 796 + 0.1% Emulsogen M
[2] = tested on: Fusarium avenaceum; type: in vivo; conditions: 1 d preventive, 220 L/ha, 125 g/ha, 14DAI
[3] = tested on: Fusarium virguliforme; experiment: Seed treatment, soilborne Fusarium virguliforme in soybean in the greenhouse (Example 4.2); conditions: FS500, 40 g ai per 100 kg seeds; disease index vs infected control
[4] = tested on: Fusarium graminearum; type: in vivo; conditions: 1 d preventive, 220 L/ha, 125 g/ha, 7DAI

CON(C(=O)c1cn(C)nc1C(F)F)C(C)Cc1c(Cl)cc(Cl)cc1Cl (stereo not shown) [Pydiflumetofen]
disease symptom reduction (%) vs. Untreated [1]: 97%
disease symptom reduction (%) vs. Untreated [2]: 96%
activity (%) [3]: 89%
disease symptom reduction (%) vs. Untreated [4]: 94%
